From ChEMBL document CHEMBL1131026, “D-amino acid containing, high-affinity inhibitors of recombinant human calpain I” (J Med Chem, 1998) come the findings set out here.

pIC50, pKi: −log10 of the molar value. Square brackets hold non-standard residues; d marks the D form. Peptide text beside a SMILES is read from it. * marks the point of attachment. d(hPhe) = N[C@H](CCc1ccccc1)C(=O)O; d2Thi = N[C@H](Cc1cccs1)C(=O)O; dPhg = N[C@@H](C(=O)O)c1ccccc1; Abu = CC[C@H](N)C(=O)O; Bn = c1ccc(C*)cc1; Ms = CS(=O)(=O)*

Assay [1] concerns the target T1, Calpain-1 catalytic subunit (Homo sapiens, UniProt P07384).
T1 sequence (P07384 whole entry): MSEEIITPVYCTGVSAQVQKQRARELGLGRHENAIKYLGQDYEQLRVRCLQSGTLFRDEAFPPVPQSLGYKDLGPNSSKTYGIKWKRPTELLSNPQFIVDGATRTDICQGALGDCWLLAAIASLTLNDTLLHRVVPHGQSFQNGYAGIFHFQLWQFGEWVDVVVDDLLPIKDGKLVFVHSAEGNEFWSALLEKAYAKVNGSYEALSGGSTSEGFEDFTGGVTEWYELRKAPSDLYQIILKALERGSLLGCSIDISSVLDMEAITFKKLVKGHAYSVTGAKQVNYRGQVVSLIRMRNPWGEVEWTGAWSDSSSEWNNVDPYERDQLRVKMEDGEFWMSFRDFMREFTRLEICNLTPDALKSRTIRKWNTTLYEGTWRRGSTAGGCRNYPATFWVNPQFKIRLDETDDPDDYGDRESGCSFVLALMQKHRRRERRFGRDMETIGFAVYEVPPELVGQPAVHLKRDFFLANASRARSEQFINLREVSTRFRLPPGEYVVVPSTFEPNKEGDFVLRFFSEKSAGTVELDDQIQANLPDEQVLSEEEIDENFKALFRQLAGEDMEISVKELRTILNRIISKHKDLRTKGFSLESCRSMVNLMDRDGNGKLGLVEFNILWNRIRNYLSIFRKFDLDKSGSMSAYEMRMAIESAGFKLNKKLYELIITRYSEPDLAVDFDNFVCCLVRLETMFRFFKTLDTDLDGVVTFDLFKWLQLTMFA
As to the kind of experiment: Inhibitory activity against recombinant human Calpain-I receptor.

Assay [2] deals with Prothrombin (Homo sapiens) (UniProt P00734). As to the kind of experiment: Inhibitory activity against human plasma thrombin at 10 uM. The assay is classed as cell-free.
For the next assay, the target named is Cathepsin B (Homo sapiens, UniProt P07858). Kind of assay: Inhibitory activity against cathepsin B receptor in human liver.
For assay [3], the target named is T1, Calpain-1 catalytic subunit. Kind of assay: Inhibition of intracellular Calpain-I receptor using intact cell assay system. The class given is cell-based.
For assay [4], the target named is Chymotrypsinogen A (Bos taurus) (UniProt P00766). As to the kind of experiment: Inhibitory activity against Bovine pancreas alpha-chymotrypsin at 10 uM.

On to `CCNC(=O)C(=O)[C@H](Cc1ccccc1)NC(=O)[C@@H](COCc1ccccc1)NS(C)(=O)=O`, for which the pKi in assay [1] was 6.89.
Regarding `CN([C@H](COCc1ccccc1)C(=O)N[C@H](C=O)Cc1ccccc1)S(C)(=O)=O`, the pKi in assay [1] was 6.43.
In the case of `O=C[C@H](Cc1ccccc1)NC(=O)[C@@H](COCc1ccccc1)NS(=O)(=O)c1cccs1`, in assay [1], the pKi was 8.05.
In the case of `CS(=O)(=O)N[C@H](CCc1ccccc1)C(=O)N[C@H](C=O)Cc1ccccc1` (Ms-[d(hPhe)]-Phe-aldehyde), the pKi in assay [1] is 7.55.
Take `CS(=O)(=O)N[C@H](CS(=O)(=O)Cc1ccccc1)C(=O)N[C@H](C=O)Cc1ccccc1`: the pKi in assay [1] was 7.96.
With `CS(=O)(=O)N[C@H](COCc1ccccc1)C(=O)N[C@H](C=O)CCCCNS(=O)(=O)c1ccccc1`, the inhibition in assay [2] came to 0%; in assay [4], 13%. In addition, the pKi on Cathepsin B is 8.40; in assay [1], 8.70. Besides, the pIC50 in assay [3] was 6.40.
In the case of `CS(=O)(=O)N[C@H](CSCc1ccccc1)C(=O)N[C@H](C=O)Cc1ccccc1` (Ms-[dC](Bn)-Phe-aldehyde), the inhibition in assay [2] is 7%; in assay [4], 16%. For the same compound, the pKi was 7.39 on Cathepsin B and 8.22 in assay [1]. In assay [3], this compound gave a pIC50 of 6.10.
Take `CS(=O)(=O)N[C@H](Cc1ccccc1)C(=O)N[C@H](C=O)Cc1ccccc1` (Ms-[dF]-Phe-aldehyde): the inhibition in assay [2] came out at 0%; in assay [4], 12%. The values for the pKi (at Cathepsin B; in assay [1]) were 6.92 and 7.96, respectively. In addition, in assay [3], the pIC50 is 6.22.
As to `CS(=O)(=O)N[C@@H](C(=O)N[C@H](C=O)Cc1ccccc1)c1ccccc1` (Ms-[dPhg]-Phe-aldehyde), the pKi in assay [1] is 8.05.
`CC[C@@H](C=O)NC(=O)[C@@H](COCc1ccccc1)NS(C)(=O)=O` (Ms-[dS](Bn)-[Abu]-aldehyde): the pKi in assay [1] is 7.44.
With `CC(C)C[C@@H](NS(C)(=O)=O)C(=O)N[C@H](C=O)Cc1ccccc1` (Ms-[dL]-Phe-aldehyde), the pKi in assay [1] is 7.54.
Turning to `CCS(=O)(=O)N[C@H](COCc1ccccc1)C(=O)N[C@H](C=O)Cc1ccccc1`, the inhibition in assay [2] was determined as 9%; in assay [4], 15%. Moreover, the pKi was 7.35 on Cathepsin B and 8.05 in assay [1]. Also, the pIC50 in assay [3] is 6.40.
Consider `CS(=O)(=O)N[C@H](COCc1ccccc1)C(=O)N[C@H](C=O)Cc1ccccc1`, for which the results for the inhibition in assay [2] and in assay [4] were 0% and 23%, respectively. Moreover, the pKi was 7.49 at Cathepsin B and 8.10 in assay [1]. Moreover, in assay [3], the pIC50 was 6.15.
`CS(=O)(=O)N[C@H](Cc1c[nH]c2ccccc12)C(=O)N[C@H](C=O)Cc1ccccc1` (Ms-[dW]-Phe-aldehyde): the pKi in assay [1] is 8.00.
The same measure, in the same setting: the value for `O=C[C@H](Cc1ccccc1)NC(=O)[C@@H](COCc1ccccc1)NS(=O)(=O)c1ccccc1` was 7.66.
For `CS(=O)(=O)N[C@H](Cc1cccs1)C(=O)N[C@H](C=O)Cc1ccccc1` (Ms-[d2Thi]-Phe-aldehyde), the inhibition in assay [2] and in assay [4] was 0% in each case. For the same compound, the pKi was 7.64 on Cathepsin B and 7.96 in assay [1]. In addition, in assay [3], the pIC50 was 6.52.
Regarding `CS(=O)(=O)NC(COCc1ccccc1)C(=O)N[C@H](C=O)Cc1ccccc1` (single isomer, unassigned), the pKi in assay [1] was 7.39.
As for `CC(OCc1ccccc1)[C@@H](NS(C)(=O)=O)C(=O)N[C@H](C=O)Cc1ccccc1` (some centres not stated), the inhibition in assay [2] turned out to be 0%; in assay [4], 3%. In addition, the figures for the pKi (at Cathepsin B; in assay [1]) were 7.36 and 8.05, respectively. The pIC50 in assay [3] is 6.30.
In the case of `CC(C)C[C@@H](C=O)NC(=O)[C@@H](COCc1ccccc1)NS(C)(=O)=O` (Ms-[dS](Bn)-Leu-aldehyde), the pKi in assay [1] was 7.18.
Take `CS(=O)(=O)N[C@H](COCc1ccccc1)C(=O)N[C@H](C=O)Cc1ccc(OCc2ccccc2)cc1` (Ms-[dS](Bn)-Tyr(Bn)-aldehyde): the inhibition in assay [2] and in assay [4] was 0% each time. For the same compound, the values for the pKi (at Cathepsin B; in assay [1]) were 7.35 and 8.40, respectively. In assay [3], the pIC50 was 6.15.
